Assay results taken from PMC5352783, “Characterization and cytotoxic effect of aqua-(2,2′,2′′-nitrilotriacetato)-oxo-vanadium salts on human osteosarcoma cells” (Biometals, 2017).
Read-outs that look alike come from different tables or passages of the source. Marks after values point to notes of the source that are not given here.

Experiments:
[1] = Potentiometric titration, equilibrium constants of complex species in aqueous solution; assay type: physicochemical; details: for Logarithm of equilibrium constant, reaction 1: A + H3O^+ ⇋ AH^+ + H2O (AH^+ = bpyH^+ or phenH^+) / Logarithm of equilibrium constant, reaction 2 ([drawing 1]) / Logarithm of equilibrium constant, reaction 3 ([drawing 2]): 298.15 K, ionic strength 0.1 M NaClO4, standard deviation in parentheses
Description: Potentiometric titrations were performed at 298.15 K by using Cerko Lab System microtitration unit fitted with 5‐mL Hamilton’s syringe and pH‐combined electrode (Schott‐BlueLine 16 pH type) All details for the measuring devices and the experimental setup were described in (Wyrzykowski et al. [2014]). The ionic strength was maintained at 0.1 M using NaClO4. The 6 mM [bpyH][VO(nta)(H2O)]H2O and [phenH][VO(nta)(H2O)](H2O)0.5 solutions (Vo = 5.0 mL) were potentiometrically titrated with a standardized NaOH solution (0.098 M). The concentration distribution of various complex species existing in the solution as a function of pH was obtained using the HySS program (Alderighi et al. [1999]).
The potentiometric titration method has been applied for studying the stability of [bpyH][VO(nta)(H2O)]H2O and [phenH][VO(nta)(H2O)](H2O)0.5 in aqueous solutions. The logarithm of the overall equilibrium constants of the complex species (Table 5) were refined by least-squares calculations using the Hyperquad2008 (ver. 5.2.19) computer program (Gans et al. [1996]).

[2] = test system: streptozotocin-induced (STZ) diabetic rats; parameters: method as in Thompson and Orvig [2006]; details: oral, ref Thompson and Orvig [2006]; cited from earlier work
[3] = test system: tumoral cell lines of human origin; parameters: method as in Evangelou [2002]; D’Cruz and Uckun [2002]; Dong et al. [2000]; details: leukemia, breast, ovarian, prostate and testicular cancer cells; ref Evangelou [2002]; D’Cruz and Uckun [2002]; Dong et al. [2000]; cited from earlier work
[4] = test system: UMR106 derived from rat osteosarcoma cells; details: cited from earlier work; for Cytotoxicity, normal versus tumoral osteoblasts: MC3T3E1 (normal) versus UMR106 (tumoral); for Cellular proliferation: UMR106
DNA = details: comparison of the three VO-oda compounds; cited from earlier work
[5] = test system: MC3T3E1 derived from mouse calvaria; details: cited from earlier work
human osteosarcoma cells = test system: human osteosarcoma cells; parameters: method as in Yodoshi et al. [2007]; details: rank among the three VO-oda compounds; ref Yodoshi et al. [2007]; cited from earlier work
[6] = test system: animal and human cancer cell lines; parameters: method as in earlier work; details: ref Havelek et al. [2012]; Vinklarek et al. [2004]; Gleeson et al. [2009]; Palackova et al. [2007]; cited from earlier work
[7] = test system: human osteosarcoma cell (MG-63); test: BrdU test, cell proliferation; assay type: cell-based; details: 48 h
Description: (§1) The cell lines: two human osteosarcoma cell lines (MG-63 and HOS) and untransformed hFOB were used to assess an anti-proliferative and cytotoxic effect, respectively. hFOB cells were grown in a mixture of Dulbecco’s Modified Eagle’s Medium and Ham F12 medium (1:1 ratio), MG-63 and HOS in Eagle’s Minimum Essential Medium also containing sodium pyruvate 110 mg/L and supplemented with 10% fetal bovine serum, 6 μg/mL penicillin-G, and 10 μg/mL streptomycin.
(§2) Cultured cancer cells with 80–90% confluence were used for plating. The adherent cells were trypsinized to detach cells. 100 µL of cells were seeded into each well of the 96-wells plates (1–5 × 10^4 cells per well). The plate was maintained at 37 °C in a incubator for 48 h until 80–90% confluence. Then, old media were discarded and the cells were treated with tested compounds and cisplatin as positive control. The concentrations of investigated compounds used in experiments were carefully selected according to the results obtained from a preliminary concentration–response study (data not shown). […] Fresh solutions of cisplatin were made up for each experiment owing to its instability in water. […]
Fig. 8 The inhibition of the human osteosarcoma cell (MG-63) proliferation after an incubation with investigated compounds assessed with the BrdU-test. […] Data are expressed as mean values ± SD from three experiments. ***p < 0.001 versus control

[8] = test system: human osteosarcoma cell (HOS); test: BrdU test, cell proliferation; assay type: cell-based; details: 48 h
Description: as §1, §2
Fig. 9 The inhibition of the human osteosarcoma cell (HOS) proliferation after an incubation with investigated compounds assessed with the BrdU-test. […] Data are expressed as mean values ± SD from three experiments. ***p < 0.001 versus control

[9] = at 25 °C; cited from earlier work

## 2,2′-bipyridinium aqua-(2,2′,2′′-nitrilotriacetato)-oxo-vanadium monohydrate [[bpyH][VO(nta)(H2O)]H2O]
[1]
  Logarithm of equilibrium constant, reaction 1: A + H3O^+ ⇋ AH^+ + H2O (AH^+ = bpyH^+ or phenH^+): 4.47 (0.03)^a
  Logarithm of equilibrium constant, reaction 2 ([drawing 1]): 7.80 (0.06)
  Logarithm of equilibrium constant, reaction 3 ([drawing 2]): −19.94 (0.06)

## CCc1occc(=O)c1[O][V](=[O])[O]c1c(CC)occc1=O [BEOV, VO(Etmaltolato)2]
[2]
  Effect on plasma glucose levels: lower plasma glucose levels

## Cc1occc(=O)c1[O-].Cc1occc(=O)c1[O-].[O]=[V+2] [BMOV, VO(maltolato)2]
[2]
  Effect on plasma glucose levels: lower plasma glucose levels

## Cc1ccnc2c1ccc1c(C)ccnc12.Cc1ccnc2c1ccc1c(C)ccnc12.O=S(=O)([O-])[O-].[O]=[V+2] [Metvan]
[3]
  Apoptosis: induces apoptosis

## O=C([O-])COCC(=O)[O-].[O]=[V+2].c1ccc(-c2ccccn2)nc1 [VO(oda)(bpy)]
[4]; ref León et al. [2012b]
  Cytotoxicity, normal versus tumoral osteoblasts: statistically stronger in the tumoral cells
DNA
  DNA cleavage (nuclease activity): similar

## O=C([O-])COCC(=O)[O-].[O]=[V+2].c1cnc2c(c1)ccc1cccnc12 [VO(oda)(phen)]
[4]; ref León et al. [2012b]
  Cytotoxicity, normal versus tumoral osteoblasts: stronger in the normal than in the tumoral osteoblasts
  Cellular proliferation: inhibition of the cellular proliferation
[5]; ref León et al. [2012b]
  Cellular proliferation: inhibition of the cellular proliferation
Human osteosarcoma cells
  Antitumor action: most potent antitumor action
DNA
  DNA cleavage (nuclease activity): stronger effect

## O=C([O-])COCC(=O)[O-].[O]=[V+2] [VO(oda)]
[4]; ref Rivadeneira et al. [2010]
  Cytotoxicity, normal versus tumoral osteoblasts: stronger in the normal (MC3T3E1) than in the tumoral (UMR106) osteoblasts
  Cellular proliferation: inhibition of a cellular proliferation
[5]; ref Rivadeneira et al. [2010]
  Cellular proliferation: inhibition of a cellular proliferation
DNA
  DNA cleavage (nuclease activity): similar

## [Cl-].[Cl-].[V+4].c1cc[cH-]c1.c1cc[cH-]c1 [[VCp2Cl2], bis(cyclopentadienyl) dichloro-V(IV)]
[6]
  In vitro activity against cancer cell lines: high in vitro activity

## O.O=C([O-])CN(CC(=O)[O-])CC(=O)[O-].[O]=[V+2] [[VO(nta)(H2O)]^−]
[1]; aqueous solution, species distribution from the equilibrium constants
  pH up to which the aqua complex is stable: ≤ 5

## O.O=C([O-])CN(CC(=O)[O-])CC(=O)[O-].[O]=[V+2].c1cnc2c(c1)ccc1ccc[nH+]c12 [[phenH][VO(nta)(H2O)](H2O)0.5]
[7]; 1-100 μM
  Anti-proliferative activity (BrdU incorporation): most effective anti-proliferative activity
[7]; BrdU test
  Anti-proliferative activity compared with cis-Pt(NH3)2Cl2: significantly higher
[1]
  Logarithm of equilibrium constant, reaction 1: A + H3O^+ ⇋ AH^+ + H2O (AH^+ = bpyH^+ or phenH^+): 5.00 (0.04)^a
  Logarithm of equilibrium constant, reaction 2 ([drawing 1]): 7.93 (0.07)
  Logarithm of equilibrium constant, reaction 3 ([drawing 2]): −19.91 (0.08)
[8]; 1-100 μM
  Anti-proliferative activity (BrdU incorporation): most effective anti-proliferative activity
[8]; BrdU test
  Anti-proliferative activity compared with cis-Pt(NH3)2Cl2: significantly higher

## cis-Pt(NH3)2Cl2 [cisplatin]
[9]
  water solubility: 0.253 g/100 mL
